Laboratory results taken from PubChem BioAssay AID1963964 (Molecular Pharmacology Branch, DTP, NCI, 2024).

Tested on: 997726-040-R-J2-PDC tumor spheroids, viability
Assay: Anticancer human tumor 997726-040-R-J2-PDC patient-derived squamous cell lung carcinoma cell line growth inhibition [PI3K]
Conditions: spheroids with HUVEC and MSC; for IC50: curve of first compound; for viability, T/C: stronger effect = lower value
In short: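 Complex 3D spheroids (cancer cells + endothelial HUVEC + mesenchymal stem cells); drug pairs of targeted agent x inavolisib/alpelisib/duvelisib/copanlisib; half-log series from ~Cmax, max 10 microM if Cmax unknown; endpoint viability.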

[1] = second compound 0.0316 µM, first compound 0.0316 µM
[2] = second compound 0.0316 µM, first compound 0.1 µM
[3] = second compound 0.0316 µM, first compound 0.316 µM
[4] = second compound 0.0316 µM, first compound 1 µM
[5] = second compound 0.0316 µM, first compound 3.16 µM
[6] = second compound 0.0316 µM, first compound 10 µM
[7] = second compound 0.1 µM, first compound 0.0316 µM
[8] = second compound 0.1 µM, first compound 0.1 µM
[9] = second compound 0.1 µM, first compound 0.316 µM
[10] = second compound 0.1 µM, first compound 1 µM
[11] = second compound 0.1 µM, first compound 3.16 µM
[12] = second compound 0.1 µM, first compound 10 µM
[13] = second compound 0.316 µM, first compound 0.0316 µM
[14] = second compound 0.316 µM, first compound 0.1 µM
[15] = second compound 0.316 µM, first compound 0.316 µM
[16] = second compound 0.316 µM, first compound 1 µM
[17] = second compound 0.316 µM, first compound 3.16 µM
[18] = second compound 0.316 µM, first compound 10 µM
[19] = second compound 1 µM, first compound 0.0316 µM
[20] = second compound 1 µM, first compound 0.1 µM
[21] = second compound 1 µM, first compound 0.316 µM
[22] = second compound 1 µM, first compound 1 µM
[23] = second compound 1 µM, first compound 3.16 µM
[24] = second compound 1 µM, first compound 10 µM
[25] = second compound 3.16 µM, first compound 0.0316 µM
[26] = second compound 3.16 µM, first compound 0.1 µM
[27] = second compound 3.16 µM, first compound 0.316 µM
[28] = second compound 3.16 µM, first compound 1 µM
[29] = second compound 3.16 µM, first compound 3.16 µM
[30] = second compound 3.16 µM, first compound 10 µM
[31] = second compound 10 µM, first compound 0.0316 µM
[32] = second compound 10 µM, first compound 0.1 µM
[33] = second compound 10 µM, first compound 0.316 µM
[34] = second compound 10 µM, first compound 1 µM
[35] = second compound 10 µM, first compound 3.16 µM
[36] = second compound 10 µM, first compound 10 µM
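Also: spheroids exposed to compounds for seven days before readout.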

## C=CC(=O)N1CCN(c2nc(=O)n(-c3c(C)ccnc3C(C)C)c3nc(-c4c(O)cccc4F)c(F)cc23)C(C)C1 (stereo not drawn) + CC(Nc1ncnc2nc[nH]c12)c1cc2cccc(Cl)c2c(=O)n1-c1ccccc1
Second compound 0.0316 µM
  IC50: > 10 µM
Second compound 0.1 µM
  IC50: > 10 µM
Second compound 0.316 µM
  IC50: > 10 µM
Second compound 1 µM
  IC50: > 10 µM
Second compound 3.16 µM
  IC50: > 10 µM
Second compound 10 µM
  IC50: > 10 µM
[1]
  viability, T/C: 91.5%
[2]
  viability, T/C: 112%
[3]
  viability, T/C: 107%
[4]
  viability, T/C: 106%
[5]
  viability, T/C: 123%
[6]
  viability, T/C: 130%
[7]
  viability, T/C: 108%
[8]
  viability, T/C: 103%
[9]
  viability, T/C: 101%
[10]
  viability, T/C: 104%
[11]
  viability, T/C: 113%
[12]
  viability, T/C: 126%
[13]
  viability, T/C: 104%
[14]
  viability, T/C: 95%
[15]
  viability, T/C: 104%
[16]
  viability, T/C: 102%
[17]
  viability, T/C: 133%
[18]
  viability, T/C: 113%
[19]
  viability, T/C: 86.7%
[20]
  viability, T/C: 86.4%
[21]
  viability, T/C: 92.7%
[22]
  viability, T/C: 98.4%
[23]
  viability, T/C: 120%
[24]
  viability, T/C: 109%
[25]
  viability, T/C: 72.2%
[26]
  viability, T/C: 75.4%
[27]
  viability, T/C: 78.9%
[28]
  viability, T/C: 85.3%
[29]
  viability, T/C: 96.2%
[30]
  viability, T/C: 95.6%
[31]
  viability, T/C: 58.1%
[32]
  viability, T/C: 51%
[33]
  viability, T/C: 60.8%
[34]
  viability, T/C: 55.8%
[35]
  viability, T/C: 64.7%
[36]
  viability, T/C: 68.8%

## CCN1CCN(Cc2ccc(Nc3ncc(F)c(-c4cc(F)c5nc(C)n(C(C)C)c5c4)n3)nc2)CC1 + CC(Nc1ncnc2nc[nH]c12)c1cc2cccc(Cl)c2c(=O)n1-c1ccccc1
Second compound 0.0316 µM
  IC50: > 1 µM
Second compound 0.1 µM
  IC50: > 1 µM
Second compound 0.316 µM
  IC50: > 1 µM
Second compound 1 µM
  IC50: > 1 µM
Second compound 3.16 µM
  IC50: > 1 µM
Second compound 10 µM
  IC50: 0.00526 µM
Second compound 0.0316 µM, first compound 0.00316 µM
  viability, T/C: 95.3%
Second compound 0.0316 µM, first compound 0.01 µM
  viability, T/C: 82.4%
[1]
  viability, T/C: 75.6%
[2]
  viability, T/C: 74.4%
[3]
  viability, T/C: 67.2%
[4]
  viability, T/C: 76.8%
Second compound 0.1 µM, first compound 0.00316 µM
  viability, T/C: 81.7%
Second compound 0.1 µM, first compound 0.01 µM
  viability, T/C: 91.1%
[7]
  viability, T/C: 73.1%
[8]
  viability, T/C: 68.3%
[9]
  viability, T/C: 74.9%
[10]
  viability, T/C: 82.7%
Second compound 0.316 µM, first compound 0.00316 µM
  viability, T/C: 87.5%
Second compound 0.316 µM, first compound 0.01 µM
  viability, T/C: 97.1%
[13]
  viability, T/C: 73.2%
[14]
  viability, T/C: 68.7%
[15]
  viability, T/C: 69.8%
[16]
  viability, T/C: 78.4%
Second compound 1 µM, first compound 0.00316 µM
  viability, T/C: 79.1%
Second compound 1 µM, first compound 0.01 µM
  viability, T/C: 78.4%
[19]
  viability, T/C: 59.9%
[20]
  viability, T/C: 61.5%
[21]
  viability, T/C: 61.4%
[22]
  viability, T/C: 68.9%
Second compound 3.16 µM, first compound 0.00316 µM
  viability, T/C: 70.7%
Second compound 3.16 µM, first compound 0.01 µM
  viability, T/C: 66.1%
[25]
  viability, T/C: 56.3%
[26]
  viability, T/C: 52.1%
[27]
  viability, T/C: 60.1%
[28]
  viability, T/C: 66%
Second compound 10 µM, first compound 0.00316 µM
  viability, T/C: 51.5%
Second compound 10 µM, first compound 0.01 µM
  viability, T/C: 50.9%
[31]
  viability, T/C: 41.2%
[32]
  viability, T/C: 40.9%
[33]
  viability, T/C: 40.6%
[34]
  viability, T/C: 47.1%

## Cn1ncc(Cl)c1-c1cc(C(=O)NC(CN)Cc2cccc(F)c2)sc1Cl (stereo not drawn) + CC(Nc1ncnc2nc[nH]c12)c1cc2cccc(Cl)c2c(=O)n1-c1ccccc1
Second compound 0.0316 µM
  IC50: 0.112 µM
Second compound 0.1 µM
  IC50: 0.118 µM
Second compound 0.316 µM
  IC50: 0.113 µM
Second compound 1 µM
  IC50: 0.128 µM
Second compound 3.16 µM
  IC50: 0.0769 µM
Second compound 10 µM
  IC50: 0.0363 µM
[1]
  viability, T/C: 79.2%
[2]
  viability, T/C: 52.6%
[3]
  viability, T/C: 26.7%
[4]
  viability, T/C: 16.1%
[5]
  viability, T/C: 9.99%
[6]
  viability, T/C: 12.3%
[7]
  viability, T/C: 71.1%
[8]
  viability, T/C: 52.8%
[9]
  viability, T/C: 30.5%
[10]
  viability, T/C: 14.9%
[11]
  viability, T/C: 10.7%
[12]
  viability, T/C: 12.4%
[13]
  viability, T/C: 78.2%
[14]
  viability, T/C: 52.8%
[15]
  viability, T/C: 26.3%
[16]
  viability, T/C: 16%
[17]
  viability, T/C: 11.8%
[18]
  viability, T/C: 13.8%
[19]
  viability, T/C: 72.7%
[20]
  viability, T/C: 56.5%
[21]
  viability, T/C: 26.7%
[22]
  viability, T/C: 16.8%
[23]
  viability, T/C: 12.7%
[24]
  viability, T/C: 12.7%
[25]
  viability, T/C: 66.1%
[26]
  viability, T/C: 44.6%
[27]
  viability, T/C: 27.8%
[28]
  viability, T/C: 15.2%
[29]
  viability, T/C: 12.2%
[30]
  viability, T/C: 12.8%
[31]
  viability, T/C: 51.5%
[32]
  viability, T/C: 38.8%
[33]
  viability, T/C: 21.2%
[34]
  viability, T/C: 13.3%
[35]
  viability, T/C: 10%
[36]
  viability, T/C: 9.74%

## Cn1nccc1Nc1nccc(-c2ccn(C(CO)c3ccc(Cl)c(F)c3)c(=O)c2)n1 (stereo not drawn) + CC(Nc1ncnc2nc[nH]c12)c1cc2cccc(Cl)c2c(=O)n1-c1ccccc1
Second compound 0.0316 µM
  IC50: > 10 µM
Second compound 0.1 µM
  IC50: > 10 µM
Second compound 0.316 µM
  IC50: > 10 µM
Second compound 1 µM
  IC50: > 10 µM
Second compound 3.16 µM
  IC50: > 10 µM
Second compound 10 µM
  IC50: 0.0708 µM
[1]
  viability, T/C: 93.3%
[2]
  viability, T/C: 81.7%
[3]
  viability, T/C: 77.2%
[4]
  viability, T/C: 69.3%
[5]
  viability, T/C: 64.2%
[6]
  viability, T/C: 59.5%
[7]
  viability, T/C: 91.6%
[8]
  viability, T/C: 90.1%
[9]
  viability, T/C: 73.9%
[10]
  viability, T/C: 69.4%
[11]
  viability, T/C: 62.5%
[12]
  viability, T/C: 61.8%
[13]
  viability, T/C: 89.6%
[14]
  viability, T/C: 93.7%
[15]
  viability, T/C: 74%
[16]
  viability, T/C: 57.2%
[17]
  viability, T/C: 64.3%
[18]
  viability, T/C: 62.4%
[19]
  viability, T/C: 96.5%
[20]
  viability, T/C: 77.6%
[21]
  viability, T/C: 74.2%
[22]
  viability, T/C: 67.6%
[23]
  viability, T/C: 58.8%
[24]
  viability, T/C: 60.2%
[25]
  viability, T/C: 73.9%
[26]
  viability, T/C: 62.7%
[27]
  viability, T/C: 61.6%
[28]
  viability, T/C: 55.6%
[29]
  viability, T/C: 57.8%
[30]
  viability, T/C: 48.2%
[31]
  viability, T/C: 56.2%
[32]
  viability, T/C: 47.6%
[33]
  viability, T/C: 37.2%
[34]
  viability, T/C: 43.6%
[35]
  viability, T/C: 40.4%
[36]
  viability, T/C: 31.1%
